Laboratory results as given in ChEMBL document CHEMBL1133982, “Selective heterocyclic amidine inhibitors of human inducible nitric oxide synthase” (Bioorg Med Chem Lett, 2001).
pIC50: −log10 of the molar value.

Legend:
[1] = molecular target: T1, Nitric oxide synthase 1 (Homo sapiens, UniProt P29475); assay: Inhibition of Neuronal nitric oxide synthase
[2] = molecular target: T2, Nitric oxide synthase 3 (Homo sapiens, UniProt P29474); assay: Inhibition of endothelial nitric oxide synthase
T2 sequence (P29474 whole entry): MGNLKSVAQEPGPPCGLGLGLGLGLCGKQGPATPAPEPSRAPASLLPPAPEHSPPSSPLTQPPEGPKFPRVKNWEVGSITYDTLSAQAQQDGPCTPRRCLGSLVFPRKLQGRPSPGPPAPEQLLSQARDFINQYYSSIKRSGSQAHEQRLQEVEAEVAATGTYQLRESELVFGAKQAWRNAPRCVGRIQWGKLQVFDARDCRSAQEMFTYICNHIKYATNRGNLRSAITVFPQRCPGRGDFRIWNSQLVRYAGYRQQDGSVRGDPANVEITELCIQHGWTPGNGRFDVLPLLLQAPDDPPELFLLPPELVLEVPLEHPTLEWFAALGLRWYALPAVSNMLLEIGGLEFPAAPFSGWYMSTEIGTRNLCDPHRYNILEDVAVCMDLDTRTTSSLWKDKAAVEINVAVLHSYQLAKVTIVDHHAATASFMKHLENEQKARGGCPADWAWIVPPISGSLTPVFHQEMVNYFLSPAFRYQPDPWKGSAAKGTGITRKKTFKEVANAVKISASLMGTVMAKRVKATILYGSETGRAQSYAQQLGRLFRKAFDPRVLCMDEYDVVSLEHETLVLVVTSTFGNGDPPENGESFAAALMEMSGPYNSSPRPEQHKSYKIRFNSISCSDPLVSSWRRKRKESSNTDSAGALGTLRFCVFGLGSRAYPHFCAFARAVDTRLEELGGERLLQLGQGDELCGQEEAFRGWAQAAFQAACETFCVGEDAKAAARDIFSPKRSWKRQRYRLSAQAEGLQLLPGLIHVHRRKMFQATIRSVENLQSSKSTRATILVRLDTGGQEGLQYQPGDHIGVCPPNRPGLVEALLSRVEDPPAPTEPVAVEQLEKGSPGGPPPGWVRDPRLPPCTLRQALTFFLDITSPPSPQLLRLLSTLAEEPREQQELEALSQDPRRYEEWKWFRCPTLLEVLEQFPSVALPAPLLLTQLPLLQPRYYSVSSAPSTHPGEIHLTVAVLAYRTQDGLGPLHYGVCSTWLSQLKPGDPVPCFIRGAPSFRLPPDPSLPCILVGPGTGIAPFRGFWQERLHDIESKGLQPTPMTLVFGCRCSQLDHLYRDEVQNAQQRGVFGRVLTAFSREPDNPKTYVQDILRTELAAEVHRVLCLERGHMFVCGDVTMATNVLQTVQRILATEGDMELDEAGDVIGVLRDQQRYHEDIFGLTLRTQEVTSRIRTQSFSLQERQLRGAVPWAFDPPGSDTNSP

[3] = molecular target: T3, Nitric oxide synthase, inducible (Homo sapiens, UniProt P35228); assay: Inhibition of inducible nitric oxide synthase
[4] = molecular target: T1, Nitric oxide synthase 1; assay: Inhibitory activity against Neuronal nitric oxide synthase at 100 uM concentration was determined
[5] = molecular target: T4, Nitric oxide synthase 3 (Homo sapiens) (UniProt P29474); assay: Inhibitory activity against Endothelial nitric oxide synthase at 100 uM concentration was determined
T4 sequence (whole entry): T2 sequence (P29474 whole entry)

[6] = molecular target: T3, Nitric oxide synthase, inducible; assay: Inhibitory activity against Inducible nitric oxide synthase at 100 uM concentration was determined

T3 sequence (P35228 whole entry): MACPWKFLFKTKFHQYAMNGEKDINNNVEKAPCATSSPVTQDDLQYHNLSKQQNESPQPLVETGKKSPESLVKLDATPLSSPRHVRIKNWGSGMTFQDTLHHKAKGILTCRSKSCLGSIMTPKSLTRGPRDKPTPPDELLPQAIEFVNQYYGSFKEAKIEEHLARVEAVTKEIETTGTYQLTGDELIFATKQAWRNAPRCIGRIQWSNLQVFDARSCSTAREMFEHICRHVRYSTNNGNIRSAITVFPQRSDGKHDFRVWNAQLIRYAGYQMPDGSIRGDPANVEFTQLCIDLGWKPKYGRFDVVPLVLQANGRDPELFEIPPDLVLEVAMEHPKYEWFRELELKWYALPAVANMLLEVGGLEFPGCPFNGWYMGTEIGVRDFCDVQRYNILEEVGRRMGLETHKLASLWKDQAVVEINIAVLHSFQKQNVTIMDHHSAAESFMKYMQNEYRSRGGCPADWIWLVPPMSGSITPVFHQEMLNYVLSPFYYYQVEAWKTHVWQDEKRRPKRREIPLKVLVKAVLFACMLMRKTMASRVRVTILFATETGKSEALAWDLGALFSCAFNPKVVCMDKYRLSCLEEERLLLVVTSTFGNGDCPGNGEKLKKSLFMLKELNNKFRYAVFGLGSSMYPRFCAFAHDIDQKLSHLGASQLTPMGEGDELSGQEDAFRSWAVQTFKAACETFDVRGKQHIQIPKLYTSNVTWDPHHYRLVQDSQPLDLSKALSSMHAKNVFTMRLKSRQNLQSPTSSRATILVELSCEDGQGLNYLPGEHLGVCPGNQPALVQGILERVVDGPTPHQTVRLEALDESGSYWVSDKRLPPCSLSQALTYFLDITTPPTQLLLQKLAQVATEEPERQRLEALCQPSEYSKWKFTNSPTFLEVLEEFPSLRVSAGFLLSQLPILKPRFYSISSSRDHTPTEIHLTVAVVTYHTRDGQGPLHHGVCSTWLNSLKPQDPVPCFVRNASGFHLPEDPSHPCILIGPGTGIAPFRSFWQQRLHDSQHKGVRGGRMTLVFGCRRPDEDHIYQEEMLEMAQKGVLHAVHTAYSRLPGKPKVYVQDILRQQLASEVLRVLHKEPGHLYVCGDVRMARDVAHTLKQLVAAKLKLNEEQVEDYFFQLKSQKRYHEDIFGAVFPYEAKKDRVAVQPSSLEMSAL
T1 sequence (P29475 whole entry): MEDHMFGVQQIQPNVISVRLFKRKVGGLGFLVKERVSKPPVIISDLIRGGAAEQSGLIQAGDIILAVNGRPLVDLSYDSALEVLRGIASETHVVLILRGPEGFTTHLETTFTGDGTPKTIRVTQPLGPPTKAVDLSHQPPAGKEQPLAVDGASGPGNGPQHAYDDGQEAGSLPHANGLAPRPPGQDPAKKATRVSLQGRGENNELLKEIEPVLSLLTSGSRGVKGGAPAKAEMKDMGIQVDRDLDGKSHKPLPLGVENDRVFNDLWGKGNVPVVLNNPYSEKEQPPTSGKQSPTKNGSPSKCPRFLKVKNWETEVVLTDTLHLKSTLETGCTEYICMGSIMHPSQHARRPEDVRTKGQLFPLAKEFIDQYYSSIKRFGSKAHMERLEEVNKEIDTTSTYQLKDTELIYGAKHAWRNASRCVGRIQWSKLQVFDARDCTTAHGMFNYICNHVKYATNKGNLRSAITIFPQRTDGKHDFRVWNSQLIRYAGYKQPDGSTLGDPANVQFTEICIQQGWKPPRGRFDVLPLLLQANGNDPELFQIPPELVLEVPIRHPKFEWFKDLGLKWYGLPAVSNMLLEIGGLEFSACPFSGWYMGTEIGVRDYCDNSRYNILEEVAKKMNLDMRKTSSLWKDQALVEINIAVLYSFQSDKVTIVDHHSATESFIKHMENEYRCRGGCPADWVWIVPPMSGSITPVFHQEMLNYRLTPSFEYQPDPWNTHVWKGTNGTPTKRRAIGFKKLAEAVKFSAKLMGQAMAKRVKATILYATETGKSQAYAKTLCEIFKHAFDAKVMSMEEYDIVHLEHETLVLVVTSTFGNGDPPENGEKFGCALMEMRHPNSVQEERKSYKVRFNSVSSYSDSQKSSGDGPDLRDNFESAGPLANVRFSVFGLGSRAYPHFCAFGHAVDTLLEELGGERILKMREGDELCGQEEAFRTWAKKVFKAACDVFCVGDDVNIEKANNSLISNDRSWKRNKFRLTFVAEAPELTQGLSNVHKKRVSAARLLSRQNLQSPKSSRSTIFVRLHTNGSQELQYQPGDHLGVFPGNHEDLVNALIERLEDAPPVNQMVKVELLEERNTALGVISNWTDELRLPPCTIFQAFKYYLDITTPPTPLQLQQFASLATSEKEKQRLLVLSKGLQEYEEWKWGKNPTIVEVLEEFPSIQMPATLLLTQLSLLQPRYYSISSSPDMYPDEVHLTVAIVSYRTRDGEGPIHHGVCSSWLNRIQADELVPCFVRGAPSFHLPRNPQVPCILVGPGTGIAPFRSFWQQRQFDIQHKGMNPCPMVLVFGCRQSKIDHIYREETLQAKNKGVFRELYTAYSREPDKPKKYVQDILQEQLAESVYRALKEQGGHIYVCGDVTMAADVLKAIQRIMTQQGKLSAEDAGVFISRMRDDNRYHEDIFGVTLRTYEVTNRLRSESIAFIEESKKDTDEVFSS

Row | Structure (SMILES) | pIC50 [1] | pIC50 [2] | pIC50 [3] | inhibition [4] [%] | inhibition [5] [%] | inhibition [6] [%]
1 | CCCCC1COCCC(N)=N1 (configuration not stated) | 4.59 | 2.87 | 5.61 |  |  | 
2 | NCCC1COCCC(N)=N1 (configuration not stated) | 5.08 | 3.61 | 5.18 |  |  | 
3 | C/C=C/CC1COCCC(N)=N1 (configuration not stated) | 3.97 | 3.15 | 5.03 |  |  | 
4 | C/C=C/CC1CCCCC(N)=N1 (configuration not stated) | 5.47 | 3.69 | 6.05 |  |  | 
5 | NC1=NCCOCC1 | 4.75 | 4.14 | 4.85 |  |  | 
6 | CCOC(=O)[C@@H]1CSCCC(N)=N1 |  |  |  | 84.8 | 8.66 | 70.9
7 | CCCCC1CCCCC(N)=N1 (configuration not stated) |  |  | 6.29 |  |  | 
8 | N=C1CCOCC(CC[N+](=O)[O-])N1 (configuration not stated) | 5.20 | 4.31 | 6.01 |  |  | 
9 | NC1=NC(CC[N+](=O)[O-])CCCC1 (configuration not stated) | 6.47 | 5.56 | 6.82 |  |  | 
10 | CN1CCN=C(N)CC1 |  |  |  |  | 6.42 | 32.1
11 | CCOC(=O)[C@H]1CSCCC(N)=N1 |  |  |  | 82.6 | 13.9 | 70.9
12 | CCOC(=O)[C@@H]1CCSCC/C(N)=N\1 |  |  |  | 13.9 | 2.4 | 55.7
13 | N/C1=N/CCCSCC1 | 4.68 | 3.73 | 4.88 |  |  | 
14 | NCCC1CCCCC(N)=N1 (configuration not stated) | 6.03 | 4.41 | 6.15 |  |  | 
15 | NC1=NCCSCC1 | 5.17 | 4.36 | 5.57 |  |  | 
